pEC50: −log10 of the molar value. Bridge positions count the residues as written; N and C are the ends. Square brackets hold non-standard residues; d marks the D form. Peptide text beside a SMILES is read from it. * marks the point of attachment. Ac6c = NC1(C(=O)O)CCCCC1; Octanoyl = CCCCCCCC(=O)*; AEEA = NCCOCCOCC(=O)O; Aoc = NCCCCCCCC(=O)O; X2 = CCCCCCO*
Assays:
IL-8 = assay: In vitro chemotaxis, inhibition v IL-8; format: cell-based, human; set-up: concentration or dose not given beside the values
Description: To determine whether an agent inhibits a chemokine-induced activity, such as macrophage recruitment, varying amounts of the agent are mixed with cells in the presence of a known chemoattractant. For example, a range of known concentrations of an agent, e.g., a chemokine peptide, is incubated with a defined number (e.g., 10^4-10^6) of human THP-1 monocyte cells in individual wells of the top compartment of a trans-well plate. Chemokine, at a concentration known to cause significant migration of THP-1 cells in the trans-well migration assay, is placed in the lower compartment of a trans-well plate. Cells are then incubated at 37° C. for a period sufficient to allow migration, e.g., 4 hours. After incubation, the cells are gently removed from the top of the filter with a pipette, 20 μl of 20 mM EDTA in simple PBS is added into each top well, and incubated for 20 minutes at 4° C. The filter is carefully flushed with media using a gentle flow, and removed. A standard curve consisting of a two-fold dilution series of THP-1 cells (in 29 μl) is placed to accurately quantify the number of cells that have migrated. Migrated cells are stained with 3 μl of MTT stock dye solution which is added directly into each well (5 mg/ml in RPMI-1640 without phenol red) (Sigma Chemical Co., St. Louis, Mo., USA) and incubated at 37° C. for 4 hours. The media is carefully aspirated from each well, and the converted dye is solubilized by 20 μl of DMSO. Absorbance of converted dye is measured at a wavelength of 595 nm using an ELISA plate reader. The number of migrated cells in each well is then determined by interpolation of the standard curve (see also Imai et al., J. Biol. Chem., 272:15036, 1997). Any method suitable for counting cells can be used, for example, counting with a hemocytometer, incubation of the cells with MTT (see above), or FACS analysis. A negative control assay is also performed, using TGFβ or another non-chemokine chemoattractant (e.g., IL1β or TNFα). To assess whether the agent is cytotoxic, the same concentrations of agent are incubated with THP-1 cells. Agents which 1) are not cytotoxic at levels which inhibit migration, 2) are ineffective at inhibiting the negative control-induced migration, and 3) reduce or inhibit chemokine-induced THP-1 migration, are agents which fall within the scope of the invention.

MCP-1 = assay: In vitro chemotaxis (trans-well migration) v MCP-1; format: cell-based, human
Summary of the method: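 Human THP-1 monocytes (10^4-10^6) with agent at varying concentrations in upper trans-well chamber; IL-8 or MCP-1 in lower chamber at a migration-inducing concentration, 37° C for e.g. 4 hours. Migrated cells quantified by MTT (595 nm) against a THP-1 standard curve; cytotoxicity and non-chemokine chemoattractant controls run.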

SMILES	v IL-8 inhibition (%) (IL-8)	pEC50 (MCP-1)
CC[C@H](C)[C@@H]1NC(=O)[C@H](Cc2c[nH]c3ccccc23)NC(=O)[C@H](CCCCN)NC(=O)[C@H](CCC(N)=O)NC(=O)[C@H](CCCCN)NC(=O)[C@@H](NC(=O)[C@@H]2CCCN2)CSSC[C@@H](C(N)=O)NC(=O)[C@H](CCC(N)=O)NC1=O [Example 43, Pro-c(Cys-Lys-Gln-Lys-Trp-Ile-Gln-Cys)-NH2] (H-PCKQKWIQC-NH2; disulfide 2-9)	21.9	6.22
CCCCCCOC(=O)C[C@H]1NC(=O)[C@H]2CCCN2C(=O)[C@@H](CCCCN)NC(=O)[C@@H](CCC(N)=O)NC(=O)[C@@H](CCCCN)NC(=O)[C@@H](Cc2c[nH]c3ccccc23)NC(=O)[C@@H]([C@H](C)CC)NC(=O)[C@@H](CCC(N)=O)NC(=O)[C@H](N)CSSC[C@H](C(N)=O)NC(=O)[C@@H](CC(C)C)NC1=O [Example 161, c(D-Cys-D-Gln-D-Ile-D-Trp-D-Lys-D-Gln-D-Lys-D-Pro-D-Asp(1-hexanol)-D-Leu-D-Cys)-NH2] (H-[dC][dQ][dI][dW][dK][dQ][dK][dP][dD](X2)[dL][dC]-NH2; disulfide 1-11)	99.8	8.10
CC[C@H](C)[C@@H]1NC(=O)[C@H](Cc2c[nH]c3ccccc23)NC(=O)[C@H](CCCCN)NC(=O)[C@H](CCC(N)=O)NC(=O)[C@H](CCCCN)NC(=O)[C@@H]2CCCN2C(=O)[C@H](CC(=O)O)NC(=O)[C@@H](CC(C)C)NC(=O)[C@@H](NC(C)=O)CSSC[C@@H](C(N)=O)NC(=O)[C@H](CCC(N)=O)NC1=O [Example 32, Ac-c(Cys-D-Leu-Asp-Pro-Lys-Gln-Lys-Trp-Ile-Gln-Cys)-NH2] (Ac-C[dL]DPKQKWIQC-NH2; disulfide 1-11)	8.7	< 6.00
CC[C@H](C)[C@@H]1NC(=O)[C@H](Cc2c[nH]c3ccccc23)NC(=O)[C@H](CCCCN)NC(=O)[C@H](CCC(N)=O)NC(=O)[C@H](CCCCN)NC(=O)[C@@H](NC(C)=O)CSSC[C@@H](C(=O)N2CCC[C@@H]2C(=O)N[C@H](CC(=O)O)C(=O)N[C@H](CC(C)C)C(N)=O)NC(=O)[C@H](CCC(N)=O)NC1=O [Example 157, Ac-c(Cys-Lys-Gln-Lys-Trp-Ile-Gln-Cys)-D-Pro-D-Asp-D-Leu-NH2] (Ac-CKQKWIQC[dP][dD][dL]-NH2; disulfide 1-8)	−15	< 6.00
CC[C@H](C)[C@@H]1NC(=O)[C@H](Cc2c[nH]c3ccccc23)NC(=O)[C@H](CCCCN)NC(=O)[C@H](CCC(N)=O)NC(=O)[C@H](CCCCN)NC(=O)[C@@H]2CCCN2C(=O)[C@H](CC(=O)O)NC(=O)[C@H](CC(C)C)NC(=O)[C@@H](NC(=O)[C@H](CCCCN)NC(C)=O)CSSC[C@@H](C(N)=O)NC(=O)[C@H](CCC(N)=O)NC1=O [Example 34, Ac-Lys-c(Cys-Leu-Asp-Pro-Lys-Gln-Lys-Trp-Ile-Gln-Cys)-NH2] (Ac-KCLDPKQKWIQC-NH2; disulfide 2-12)	75.7	6.60
CC[C@H](C)[C@@H]1NC(=O)[C@H](Cc2c[nH]c3ccccc23)NC(=O)[C@H](CCCCN)NC(=O)[C@H](CCC(N)=O)NC(=O)[C@@H](NC(=O)[C@@H](N)CCCCN)CSSC[C@@H](C(N)=O)NC(=O)[C@H](CCC(N)=O)NC1=O [Example 47, Lys-c(Cys-Gln-Lys-Trp-Ile-Gln-Cys)-NH2] (H-KCQKWIQC-NH2; disulfide 2-8)	103.2	7.70
CC[C@H](C)[C@@H]1NC(=O)[C@H](Cc2c[nH]c3ccccc23)NC(=O)[C@H](CCCCN)NC(=O)[C@H](CCC(N)=O)NC(=O)[C@H](CCCCN)NC(=O)[C@@H]2CCCN2C(=O)[C@H](CC(=O)O)NC(=O)[C@H](CC(C)C)NC(=O)[C@H](N)CSSC[C@H](C(N)=O)NC(=O)[C@H](CCC(N)=O)NC1=O [Example 37, c(D-Cys-Leu-Asp-Pro-Lys-Gln-Lys-Trp-Ile-Gln-D-Cys)-NH2] (H-[dC]LDPKQKWIQ[dC]-NH2; disulfide 1-11)	−14.7	< 6.00
CC[C@H](C)[C@@H]1NC(=O)[C@H](Cc2c[nH]c3ccccc23)NC(=O)[C@H](CCCCN)NC(=O)[C@H](CCC(N)=O)NC(=O)[C@H](CCCCN)NC(=O)[C@@H](NC(=O)[C@@H]2CCCN2C(=O)[C@@H](N)CC(=O)O)CSSC[C@@H](C(N)=O)NC(=O)[C@H](CCC(N)=O)NC1=O [Example 40, Asp-Pro-c(Cys-Lys-Gln-Lys-Trp-Ile-Gln-Cys)-NH2] (H-DPCKQKWIQC-NH2; disulfide 3-10)	113.5	8.15
CC(=O)N[C@H]1CSSC[C@@H](C(N)=O)NC(=O)[C@H](CCC(N)=O)NC(=O)[C@H](Cc2c[nH]c3ccccc23)NC(=O)[C@H](CCCCN)NC(=O)[C@H](CCC(N)=O)NC(=O)[C@H](CCCCN)NC(=O)[C@@H]2CCCN2C(=O)[C@H](CC(=O)O)NC(=O)C2(CCCCC2)NC1=O [Example 156, Ac-c(Cys-A6c-Asp-Pro-Lys-Gln-Lys-Trp-Gln-Cys)-NH2] (Ac-C[Ac6c]DPKQKWQC-NH2; disulfide 1-10)	3.1	< 6.00
CC[C@H](C)[C@@H]1NC(=O)[C@H](Cc2c[nH]c3ccccc23)NC(=O)[C@H](CCCCN)NC(=O)[C@H](CCC(N)=O)NC(=O)[C@@H](NC(=O)[C@H](CCCCN)NC(=O)[C@@H]2CCCN2)CSSC[C@@H](C(N)=O)NC(=O)[C@H](CCC(N)=O)NC1=O [Example 44, Pro-Lys-c(Cys-Gln-Lys-Trp-Ile-Gln-Cys)-NH2] (H-PKCQKWIQC-NH2; disulfide 3-9)	12.9	6.00
CC[C@H](C)[C@@H]1NC(=O)[C@@H](Cc2c[nH]c3ccccc23)NC(=O)[C@H](CCCCN)NC(=O)[C@H](CCC(N)=O)NC(=O)[C@H](CCCCN)NC(=O)[C@@H]2CCCN2C(=O)[C@H](CC(=O)O)NC(=O)[C@H](CC(C)C)NC(=O)[C@@H](NC(C)=O)CSSC[C@@H](C(N)=O)NC(=O)[C@H](CCC(N)=O)NC1=O [Example 26, Ac-c(Cys-Leu-Asp-Pro-Lys-Gln-Lys-D-Trp-Ile-Gln-Cys)-NH2] (Ac-CLDPKQK[dW]IQC-NH2; disulfide 1-11)	94.9	7.70
CC[C@@H](C)[C@H]1NC(=O)[C@@H](CCC(N)=O)NC(=O)[C@H](N)CSSC[C@H](C(=O)N[C@@H](CCC(=O)O)C(=O)NCCCCCCCC(=O)O)NC(=O)[C@@H](CC(C)C)NC(=O)[C@@H](CC(=O)O)NC(=O)[C@H]2CCCN2C(=O)[C@@H](CCCCN)NC(=O)[C@@H](CCC(N)=O)NC(=O)[C@@H](CCCCN)NC(=O)[C@@H](Cc2c[nH]c3ccccc23)NC1=O [Example 145, c(D-Cys-D-Gln-D-Ile-D-Trp-D-Lys-D-Gln-D-Lys-D-Pro-D-Asp-D-Leu-D-Cys)-Glu-Aoc-OH] (H-[dC][dQ][dI][dW][dK][dQ][dK][dP][dD][dL][dC]E[Aoc]-OH; disulfide 1-11)	23.8	6.70
CC[C@H](C)[C@@H]1NC(=O)[C@H](Cc2c[nH]c3ccccc23)NC(=O)[C@H](CCCCN)NC(=O)[C@H](CCC(N)=O)NC(=O)[C@H](CCCCN)NC(=O)[C@@H]2CCCN2C(=O)[C@H](CC(=O)O)NC(=O)[C@H](CC(C)C)NC(=O)[C@@H](N)CSSC[C@H](C(N)=O)NC(=O)[C@H](CCC(N)=O)NC1=O [Example 36, c(Cys-Leu-Asp-Pro-Lys-Gln-Lys-Trp-Ile-Gln-D-Cys)-NH2] (H-CLDPKQKWIQ[dC]-NH2; disulfide 1-11)	21.8	6.22
CCCCCCCC(=O)NCCCC[C@H](NC(=O)COCCOCCNC(=O)[C@H]1CSSC[C@@H](N)C(=O)N[C@H](CCC(N)=O)C(=O)N[C@H]([C@H](C)CC)C(=O)N[C@H](Cc2c[nH]c3ccccc23)C(=O)N[C@H](CCCCN)C(=O)N[C@H](CCC(N)=O)C(=O)N[C@H](CCCCN)C(=O)N2CCC[C@@H]2C(=O)N[C@H](CC(=O)O)C(=O)N[C@H](CC(C)C)C(=O)N1)C(=O)O [Example 151, c(D-Cys-D-Gln-D-Ile-D-Trp-D-Lys-D-Gln-D-Lys-D-Pro-D-Asp-D-Leu-D-Cys)-Doc-Lys(Nε-octanoyl)-OH] (H-[dC][dQ][dI][dW][dK][dQ][dK][dP][dD][dL][dC][AEEA]K(Octanoyl)-OH; disulfide 1-11)	103.7	7.55
CC[C@H](C)[C@@H]1NC(=O)[C@H](Cc2c[nH]c3ccccc23)NC(=O)[C@H](CCCCN)NC(=O)[C@@H](NC(=O)[C@H](CCC(N)=O)NC(=O)[C@H](CCCCN)NC(=O)[C@@H]2CCCN2C(=O)[C@H](CC(=O)O)NC(=O)[C@@H](N)CC(C)C)CSSC[C@@H](C(N)=O)NC(=O)[C@H](CCC(N)=O)NC1=O [Example 12, Leu-Asp-Pro-Lys-Gln-c(Cys-Lys-Trp-Ile-Gln-Cys)-NH2] (H-LDPKQCKWIQC-NH2; disulfide 6-11)	94.8	7.30

— US20110038885A1, “CHEMOKINE ANALOGS” (priority 2007, published 2011)
